According to ChEMBL document CHEMBL3885881, “DrugMatrix”:

Species on record: Rattus norvegicus
Assay: DrugMatrix - Regimen: Daily Repeat
Format: toxicity, organism-based, Sprague-Dawley
Design: regimen Daily Repeat, gender Male, age 6-8 weeks
Conditions: in vivo, po, 3 mg/kg, route oral GAVAGE, dose level Low, vehicle 100 % WATER; for ABSOLUTE BASOPHIL / ABSOLUTE EOSINOPHIL / ABSOLUTE LYMPHOCYTE / ABSOLUTE MONOCYTE / ABSOLUTE SEGMENTED NEUTROPHIL / BASOPHIL / EOSINOPHIL / ERYTHROCYTE COUNT / HEMATOCRIT / HEMOGLOBIN / LEUKOCYTE COUNT / LYMPHOCYTE / MEAN CORPUSCULAR HEMOGLOBIN / MEAN CORPUSCULAR HEMOGLOBIN CONCENTRATION / MONOCYTE / NEUTROPHIL / NUCLEATED RED BLOOD CELLS / PLATELET COUNT: tissue Blood; for ALANINE AMINOTRANSFERASE / ALBUMIN / ALKALINE PHOSPHATASE / ASPARTATE AMINOTRANSFERASE / BLOOD UREA NITROGEN / CARBON DIOXIDE / CHLORIDE / CHOLESTEROL / CREATINE PHOSPHOKINASE / CREATININE / GLUCOSE / LACTATE DEHYDROGENASE / LIPASE / PHOSPHORUS / SODIUM / TOTAL BILIRUBIN / TOTAL PROTEIN / URIC ACID: tissue Plasma

SMILES: COc1cc2nc(N3CCN(C(=O)C4CCCO4)CC3)nc(N)c2cc1OC (configuration not stated) [TERAZOSIN]
- ABSOLUTE BASOPHIL (72 h, time 3 day): 0 CELLS/uL
- ABSOLUTE EOSINOPHIL (72 h, time 3 day): 53.33 CELLS/uL
- ABSOLUTE LYMPHOCYTE (72 h, time 3 day): 7633 CELLS/uL
- ABSOLUTE MONOCYTE (72 h, time 3 day): 36.67 CELLS/uL
- ABSOLUTE SEGMENTED NEUTROPHIL (72 h, time 3 day): 977 CELLS/uL
- BASOPHIL (72 h, time 3 day): 0%
- EOSINOPHIL (72 h, time 3 day): 0.67%
- ERYTHROCYTE COUNT (72 h, time 3 day): 4.99 x10E6/uL
- HEMATOCRIT (72 h, time 3 day): 32.2%
- HEMOGLOBIN (72 h, time 3 day): 12.87 G/DL
- LEUKOCYTE COUNT (72 h, time 3 day): 8.7 x10E3/uL
- LYMPHOCYTE (72 h, time 3 day): 88%
- MEAN CORPUSCULAR HEMOGLOBIN (72 h, time 3 day): 25.87 pg
- MEAN CORPUSCULAR HEMOGLOBIN CONCENTRATION (72 h, time 3 day): 40 G/DL
- MONOCYTE (72 h, time 3 day): 0.33%
- NEUTROPHIL (72 h, time 3 day): 11%
- NUCLEATED RED BLOOD CELLS (72 h, time 3 day): 0 /100WBC
- PLATELET COUNT (72 h, time 3 day): 1053.33 x10E3/uL
- ALANINE AMINOTRANSFERASE (72 h, time 3 day): 63.67 u/L
- ALBUMIN (72 h, time 3 day): 4.27 G/DL
- ALKALINE PHOSPHATASE (72 h, time 3 day): 367.67 u/L
- ASPARTATE AMINOTRANSFERASE (72 h, time 3 day): 102.33 u/L
- BLOOD UREA NITROGEN (72 h, time 3 day): 16.67 mg/dL
- CARBON DIOXIDE (72 h, time 3 day): 32.67 mmol/L
- CHLORIDE (72 h, time 3 day): 103.33 MEQ/L
- CHOLESTEROL (72 h, time 3 day): 74 mg/dL
- CREATINE PHOSPHOKINASE (72 h, time 3 day): 321.67 u/L
- CREATININE (72 h, time 3 day): 0.24 mg/dL
- GLUCOSE (72 h, time 3 day): 155 mg/dL
- LACTATE DEHYDROGENASE (72 h, time 3 day): 197.67 u/L
- LIPASE (72 h, time 3 day): 8.33 u/L
- PHOSPHORUS (72 h, time 3 day): 12.7 mg/dL
- SODIUM (72 h, time 3 day): 145.9 MEQ/L
- TOTAL BILIRUBIN (72 h, time 3 day): 0.13 mg/dL
- TOTAL PROTEIN (72 h, time 3 day): 5.97 G/DL
- URIC ACID (72 h, time 3 day): 1.27 mg/dL
- ABSOLUTE BASOPHIL (120 h, time 5 day): 0 CELLS/uL
- ABSOLUTE EOSINOPHIL (120 h, time 5 day): 0 CELLS/uL
- ABSOLUTE LYMPHOCYTE (120 h, time 5 day): 9705.67 CELLS/uL
- ABSOLUTE MONOCYTE (120 h, time 5 day): 145.67 CELLS/uL
- ABSOLUTE SEGMENTED NEUTROPHIL (120 h, time 5 day): 882 CELLS/uL
- BASOPHIL (120 h, time 5 day): 0%
- EOSINOPHIL (120 h, time 5 day): 0%
- ERYTHROCYTE COUNT (120 h, time 5 day): 5.4 x10E6/uL
- HEMATOCRIT (120 h, time 5 day): 35.9%
- HEMOGLOBIN (120 h, time 5 day): 13.87 G/DL
- LEUKOCYTE COUNT (120 h, time 5 day): 10.73 x10E3/uL
- LYMPHOCYTE (120 h, time 5 day): 90.33%
- MEAN CORPUSCULAR HEMOGLOBIN (120 h, time 5 day): 25.7 pg
- MEAN CORPUSCULAR HEMOGLOBIN CONCENTRATION (120 h, time 5 day): 38.67 G/DL
- MONOCYTE (120 h, time 5 day): 1.33%
- NEUTROPHIL (120 h, time 5 day): 8.33%
- NUCLEATED RED BLOOD CELLS (120 h, time 5 day): 0 /100WBC
- PLATELET COUNT (120 h, time 5 day): 1076.33 x10E3/uL
- ALANINE AMINOTRANSFERASE (120 h, time 5 day): 56.67 u/L
- ALBUMIN (120 h, time 5 day): 4.27 G/DL
- ALKALINE PHOSPHATASE (120 h, time 5 day): 361.33 u/L
- ASPARTATE AMINOTRANSFERASE (120 h, time 5 day): 85.33 u/L
- BLOOD UREA NITROGEN (120 h, time 5 day): 20.67 mg/dL
- CARBON DIOXIDE (120 h, time 5 day): 30 mmol/L
- CHLORIDE (120 h, time 5 day): 102.67 MEQ/L
- CHOLESTEROL (120 h, time 5 day): 75.33 mg/dL
- CREATINE PHOSPHOKINASE (120 h, time 5 day): 197.33 u/L
- CREATININE (120 h, time 5 day): 0.24 mg/dL
- GLUCOSE (120 h, time 5 day): 172 mg/dL
- LACTATE DEHYDROGENASE (120 h, time 5 day): 141.67 u/L
- LIPASE (120 h, time 5 day): 11.33 u/L
- PHOSPHORUS (120 h, time 5 day): 13.7 mg/dL
- SODIUM (120 h, time 5 day): 146.17 MEQ/L
- TOTAL BILIRUBIN (120 h, time 5 day): 0.2 mg/dL
- TOTAL PROTEIN (120 h, time 5 day): 5.9 G/DL
- URIC ACID (120 h, time 5 day): 1.7 mg/dL
